From patent US20150315188A1, “COMPOUNDS AND METHODS FOR TREATMENT OF HYPERTENSION” (MEDIVATION TECHNOLOGIES, INC., priority 2012, published 2015) come the findings set out here.

SMILES strings stand for the structures.

Holding throughout (design): purchased Milipore (Millipore)
Assay [1] deals with T1, Human adrenergic α2B receptor (Homo sapiens, UniProt P18089).
T1 sequence (P18089 1-450): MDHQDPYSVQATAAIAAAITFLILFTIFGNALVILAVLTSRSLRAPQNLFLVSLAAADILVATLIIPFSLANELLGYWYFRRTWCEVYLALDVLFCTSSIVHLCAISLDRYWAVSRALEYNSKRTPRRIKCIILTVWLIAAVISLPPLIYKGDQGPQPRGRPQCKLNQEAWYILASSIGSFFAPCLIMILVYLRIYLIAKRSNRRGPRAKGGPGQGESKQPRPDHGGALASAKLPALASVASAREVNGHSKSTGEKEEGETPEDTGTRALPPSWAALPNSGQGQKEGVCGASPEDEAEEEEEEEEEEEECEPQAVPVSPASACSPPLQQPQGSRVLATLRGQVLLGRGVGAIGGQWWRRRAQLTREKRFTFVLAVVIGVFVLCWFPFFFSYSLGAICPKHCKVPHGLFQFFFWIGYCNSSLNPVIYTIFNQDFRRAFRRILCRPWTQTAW
Description: Radioligand binding, adrenergic α2B (Protocol Group B). Particulars: Protocol Group B; for Percentage inhibition of ligand binding, Adrenergic α2B (10 nM): 10 nM compound, 0.01 µM; for Percentage inhibition of ligand binding, Adrenergic α2B (30 nM): 30 nM compound, 0.03 µM; for Percentage inhibition of ligand binding, Adrenergic α2B (0.1 μM): 0.1 μM compound. The gist of the method:
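Compounds at various concentrations in 1% DMSO were tested on recombinant membranes in Tris-HCl pH 7.4 buffer containing MgCl2, CaCl2 and 0.2% BSA.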

Assay [2] deals with T2, Human adrenergic α2A receptor (Homo sapiens, UniProt P08913).
T2 sequence (P08913 1-465): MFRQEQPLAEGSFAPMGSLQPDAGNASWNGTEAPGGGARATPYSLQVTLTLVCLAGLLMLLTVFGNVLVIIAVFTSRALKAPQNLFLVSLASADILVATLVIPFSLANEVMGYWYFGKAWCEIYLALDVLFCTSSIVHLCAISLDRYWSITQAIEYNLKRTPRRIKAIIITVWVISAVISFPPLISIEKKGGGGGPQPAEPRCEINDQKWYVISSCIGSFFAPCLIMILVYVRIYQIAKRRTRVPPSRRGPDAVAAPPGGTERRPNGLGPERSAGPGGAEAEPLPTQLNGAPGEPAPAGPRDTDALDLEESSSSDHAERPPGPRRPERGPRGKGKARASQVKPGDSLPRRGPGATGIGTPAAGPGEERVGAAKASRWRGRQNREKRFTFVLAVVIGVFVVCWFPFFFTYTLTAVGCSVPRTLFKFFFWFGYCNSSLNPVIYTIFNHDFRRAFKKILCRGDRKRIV
Description: Radioligand binding, adrenergic α2A (Protocol Group B). The following applies: Protocol Group B; for Percentage inhibition of ligand binding, Adrenergic α2A (0.1 μM): 0.1 μM compound; for Percentage inhibition of ligand binding, Adrenergic α2A (0.3 μM): 0.3 μM compound. Summed up:
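Compounds (1% DMSO vehicle, various concentrations) competed against 2 nM [^3H]MK-912 on recombinant receptor membranes for 60 min at 25° C, Tris-HCl pH 7.4 buffer with Mg2+, Ca2+, BSA. Bound radioligand filtered and counted; 10 μM rauwolscine set nonspecific binding. Values: percent inhibition of specific binding or estimated Ki.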

The target in assay [3] is T3, Human adrenergic α1B receptor (Homo sapiens, UniProt P35368).
T3 sequence (P35368 1-520): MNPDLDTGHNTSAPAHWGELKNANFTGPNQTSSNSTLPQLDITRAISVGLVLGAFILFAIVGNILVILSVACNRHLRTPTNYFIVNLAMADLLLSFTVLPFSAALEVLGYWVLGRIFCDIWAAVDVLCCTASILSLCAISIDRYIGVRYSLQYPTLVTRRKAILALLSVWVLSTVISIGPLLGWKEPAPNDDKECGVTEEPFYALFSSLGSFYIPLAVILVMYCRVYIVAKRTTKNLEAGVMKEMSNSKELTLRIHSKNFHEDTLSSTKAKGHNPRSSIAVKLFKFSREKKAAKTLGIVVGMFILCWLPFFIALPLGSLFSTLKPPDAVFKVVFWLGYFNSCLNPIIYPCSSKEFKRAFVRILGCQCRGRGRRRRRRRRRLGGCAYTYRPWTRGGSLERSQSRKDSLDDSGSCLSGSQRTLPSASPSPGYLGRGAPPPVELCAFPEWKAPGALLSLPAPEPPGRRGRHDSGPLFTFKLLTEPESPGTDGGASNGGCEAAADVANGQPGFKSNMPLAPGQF
The assay can be described thus: Radioligand binding, adrenergic α1B (Protocol Group B). The following applies: Protocol Group B; for Percentage inhibition of ligand binding, Adrenergic α1B (0.1 μM): 0.1 μM compound; for Percentage inhibition of ligand binding, Adrenergic α1B (0.3 μM): 0.3 μM compound. Summed up: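 Values are percent inhibition of specific [3H]prazosin (0.3 nM) binding or estimated Ki, from filtration counting. Human α1B recombinant membranes, Tris-HCl pH 7.4 buffer with MgCl2 and EDTA, 60 min at 25 °C, 1% DMSO vehicle; 10 μM prazosin defined nonspecific binding.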

As for `Cc1ccc2c(c1)c1c(n2CC(C)(O)c2cccnc2)CC2CCC1N2C` (single isomer, unassigned) [101c], in assay [1], the “Percentage inhibition of ligand binding, Adrenergic α2B (10 nM)” value (“Percentage inhibition … (10 nM)” for short) was determined as 7%; the “Percentage inhibition of ligand binding, Adrenergic α2B (30 nM)” value (from here on “Percentage inhibition … (30 nM)”) came to 5%; the “Percentage inhibition of ligand binding, Adrenergic α2B (0.1 μM)” value is listed as 16%. Further, in assay [2], the “Percentage inhibition of ligand binding, Adrenergic α2A (0.1 μM)” value worked out at 6% and the “Percentage inhibition of ligand binding, Adrenergic α2A (0.3 μM)” value was 7%. Besides, in assay [3], the “Percentage inhibition of ligand binding, Adrenergic α1B (0.1 μM)” value stood at 12% and the “Percentage inhibition of ligand binding, Adrenergic α1B (0.3 μM)” value is given as 7%.

For `Cc1ccc2c(c1)c1c(n2CC(C)(O)c2cccnc2)CC2CCC1N2C` (single isomer, unassigned) [101d], in assay [1], the “Percentage inhibition … (10 nM)” value is recorded as −2%; the “Percentage inhibition … (30 nM)” value is recorded as −3%; the “Percentage inhibition of ligand binding, Adrenergic α2B (0.1 μM)” value is 9%. For the same molecule, in assay [2], the “Percentage inhibition of ligand binding, Adrenergic α2A (0.1 μM)” value was −10% and the “Percentage inhibition of ligand binding, Adrenergic α2A (0.3 μM)” value is given as 3%. In assay [3], the “Percentage inhibition of ligand binding, Adrenergic α1B (0.1 μM)” value is reported as 4% and the “Percentage inhibition of ligand binding, Adrenergic α1B (0.3 μM)” value worked out at 8%.

In the case of `Cc1ccc2c(c1)c1c(n2CC(C)(O)c2ccc(F)cc2)CC2CCC1N2C` (single isomer, unassigned) [102a], in assay [1], the “Percentage inhibition … (10 nM)” value came out at 2%; the “Percentage inhibition … (30 nM)” value amounted to 13%; the “Percentage inhibition of ligand binding, Adrenergic α2B (0.1 μM)” value stood at 38%. In assay [2], the “Percentage inhibition of ligand binding, Adrenergic α2A (0.1 μM)” value is listed as −8% and the “Percentage inhibition of ligand binding, Adrenergic α2A (0.3 μM)” value was found to be 5%. Besides, in assay [3], the “Percentage inhibition of ligand binding, Adrenergic α1B (0.1 μM)” value is 5% and the “Percentage inhibition of ligand binding, Adrenergic α1B (0.3 μM)” value turned out to be 22%.

In the case of `Cc1ccc2c(c1)c1c(n2CC(C)(O)c2ccc(F)cc2)CC2CCC1N2C` (single isomer, unassigned) [102c], in assay [1], the “Percentage inhibition … (10 nM)” value is listed as −14%; the “Percentage inhibition … (30 nM)” value is −5%; the “Percentage inhibition of ligand binding, Adrenergic α2B (0.1 μM)” value was −8%. Besides, in assay [2], the “Percentage inhibition of ligand binding, Adrenergic α2A (0.1 μM)” value is −12% and the “Percentage inhibition of ligand binding, Adrenergic α2A (0.3 μM)” value is −5%. In assay [3], the “Percentage inhibition of ligand binding, Adrenergic α1B (0.1 μM)” value was −4% and the “Percentage inhibition of ligand binding, Adrenergic α1B (0.3 μM)” value turned out to be 5%.

`Cc1ccc2c(c1)c1c(n2CC(C)(O)c2ccc(F)cc2)CC2CCC1N2C` (single isomer, unassigned) [102d]: in assay [1], the “Percentage inhibition … (10 nM)” value is −8%; the “Percentage inhibition … (30 nM)” value is reported as 6%; the “Percentage inhibition of ligand binding, Adrenergic α2B (0.1 μM)” value is reported as −8%. In addition, in assay [2], the “Percentage inhibition of ligand binding, Adrenergic α2A (0.1 μM)” value was −8% and the “Percentage inhibition of ligand binding, Adrenergic α2A (0.3 μM)” value is 4%. In addition, in assay [3], the “Percentage inhibition of ligand binding, Adrenergic α1B (0.1 μM)” value is given as −1% and the “Percentage inhibition of ligand binding, Adrenergic α1B (0.3 μM)” value is −5%.

With `Cc1ccc2c(c1)c1c(n2CC(C)(O)c2ccc(F)cc2)CN2CCC1C2` (single isomer, unassigned) [134a], the “Percentage inhibition … (30 nM)” value in assay [1] was −8%. For the same molecule, in assay [2], the “Percentage inhibition of ligand binding, Adrenergic α2A (0.1 μM)” value is listed as −5%. Further, the “Percentage inhibition of ligand binding, Adrenergic α1B (0.1 μM)” value in assay [3] is given as −6%.

On to `Cc1ccc2c(c1)c1c(n2CC(C)(O)c2ccc(F)cc2)CN2CCC1C2` (single isomer, unassigned) [134b], for which, in assay [1], the “Percentage inhibition … (30 nM)” value is given as 40%. Further, in assay [2], the “Percentage inhibition of ligand binding, Adrenergic α2A (0.1 μM)” value amounted to 7%. Further, the “Percentage inhibition of ligand binding, Adrenergic α1B (0.1 μM)” value in assay [3] turned out to be 29%.

As for `Cc1ccc2c(c1)c1c(n2CC(C)(O)c2ccc(F)cc2)CN2CCC1C2` (single isomer, unassigned) [134c], in assay [1], the “Percentage inhibition … (30 nM)” value turned out to be 8%. Moreover, the “Percentage inhibition of ligand binding, Adrenergic α2A (0.1 μM)” value in assay [2] was found to be 4%. In addition, the “Percentage inhibition of ligand binding, Adrenergic α1B (0.1 μM)” value in assay [3] came out at 8%.
